{"source": "patent US8415479B2", "about": "“Inhibitor of plasminogen activator inhibitor-1” (Renascience Co., Ltd., priority 2008, dated 2013)", "key": {"PAI-1 [1]": {"target": "T1, PAI-1 (Homo sapiens, UniProt P05121)", "T1 sequence (P05121 24-402)": "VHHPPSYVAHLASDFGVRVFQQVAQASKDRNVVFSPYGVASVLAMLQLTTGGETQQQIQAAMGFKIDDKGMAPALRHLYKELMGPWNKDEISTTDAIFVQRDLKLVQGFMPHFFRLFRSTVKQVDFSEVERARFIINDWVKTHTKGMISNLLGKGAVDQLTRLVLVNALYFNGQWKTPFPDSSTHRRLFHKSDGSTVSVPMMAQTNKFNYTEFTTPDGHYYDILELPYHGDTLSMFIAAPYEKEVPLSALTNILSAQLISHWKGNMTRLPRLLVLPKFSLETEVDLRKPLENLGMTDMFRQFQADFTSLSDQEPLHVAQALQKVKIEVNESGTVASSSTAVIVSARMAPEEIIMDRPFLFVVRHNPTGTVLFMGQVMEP", "test": "Measurement of PAI-1 inhibitory activity (t-PA / chromogenic substrate S-2288)", "settings": "statement in words referring to the test example (compound at 20 μM or 50 μM); numeric PAI-1 activities (%) only in FIGS. 1 to 7", "method": "The change in PAI-1 activity can be examined by setting, as an index, a reaction product produced by the action of t-PA on a substrate. […] It can be judged that when the amount of reaction product is larger, the PAI-1 inhibitory action is higher.\nMore specifically, human-derived PAI-1 was added to a 0.1% Tween 80-containing 100 mM Tris-HCl (pH 8) solution containing each of the above compounds in a given concentration (20 μM or 50 μM), and incubated at 37° C. for 15 minutes. Subsequently, human-derived tissue plasminogen activator (t-PA) (manufactured by American Diagnostica, Inc. (USA); the same applies hereinafter) adjusted to 0.3 pmol/μL, was added thereto, and further incubated at 37° C. for 15 minutes."}, "PAI-1 [2]": {"target": "T1, PAI-1", "test": "Reference Test Example (2) evaluation of fibrinolytic action (fibrin plate, mixture of PAI-1, t-PA and test compound)", "assay_type": "biochemical", "set-up": "purchased Molecular Innovations Inc. (USA)", "settings": "room temperature, 18 hours", "protocol": "The compounds a and b were evaluated for fibrinolytic action in accordance with the document (Matsuo, O. et al., Haemostasis, 16, 43-50 (1986)).\nMore specifically, an aqueous solution (containing 25 mM barbital-sodium, 50 mM NaCl, and 25 mM CaCl2) containing a concentration of 1.5 mg/mL of fibrinogen (produced by Organon Teknica) was added, on a 9 cm-plate, to thrombin dissolved in 0.2 mL of physiological saline (10NIH U/mL: produced by Mochida Pharmaceutical Co., Ltd.), and the mixture was allowed to stand at room temperature for 2 hours. Using this mixture, fibrinolysis assay was conducted.\nNamely, a mixture of PAI-1, t-PA, and each of the test compounds was dropped onto the plate and incubated at room temperature for 18 hours. After the incubation, fibrinolysis due to plasminogen activation was measured from the lysis area on the plate."}, "PAI-1 [3]": {"target": "T1, PAI-1", "test": "Reference Test Example (1) PAI-1 inhibitory activity assay (t-PA / S-2288)", "assay_type": "biochemical", "set-up": "purchased Molecular Innovation(s) Inc. (USA)", "settings": "concentrations of 35 μM and 50 μM; FIG. 8", "protocol": "P-nitranilide removed from the chromogenic substrate (S-2288) by t-PA action was measured using a spectrophotometer at an absorbance of 405 nm at 5-minute intervals for 30 minutes.\nComparative tests were carried out in the same manner using, in place of the above test compounds, a compound (tiplaxtinin) of the formula below used as an antithrombotic drug in US clinical trials (provided that the given concentrations were 20, 35, and 50 μM).\nFIGS. 8 (A), (B), and (C) each show PAI-1 activity (%) when the compound a (concentrations: 20, 35, and 50 μM), the compound b (concentrations: 20, 35, and 50 μM), and tiplaxtinin (comparative compound) (concentrations: 20, 35, and 50 μM) are added, respectively."}, "[4]": {"test_system": "mouse model with pulmonary fibrosis artificially induced by bleomycin", "test": "Reference Test Example (3) effects on bleomycin-induced pulmonary fibrosis", "assay_type": "in vivo, C57BL/6 mouse", "settings": "scored from 0 to 8 (method of Ashcort et al.); bleomycin + compound b 200 mg/kg p.o. twice/day for 14 days; FIG. 9", "protocol": "A C57BL/6 mouse (male, body weight: 19 to 21 g) was intraperitoneally anesthetized with pentobarbital, and an incision was made on the cervical organ. Ten mice were used as controls. The control mice (n=10) were endotracheally administered bleomycin (produced by Nippon Kayaku Co., Ltd.) (1.5 U/kg) lysed in physiological saline, twice a day for 14 days. On the other hand, the test mice were subjected to forcible oral administration with the compound b (200 mg/kg), suspended in a 0.5% carboxymethyl cellulose aqueous solution, twice a day for 14 days, in addition to the above endotracheal administration. Then, the lung tissues taken from these control mice and the test mice were analyzed, and further assayed for hydroxyproline levels. The hydroxyproline levels in the lung tissues were assayed in terms of the level in the hydrolysate of the lung tissues as described in the method of Kivirikko et al. (Anal. Biochem. 19, 249-255 (1967)). The levels (severity) of pulmonary fibrosis were scored from 0 to 8, based on the method of Ashcort et al. (J. Clin. Pathol. 41, 467-470 (1988)). Further, the control mice and the test mice were assayed for plasma PAI-1 activity (ng/mL)."}}, "data": [{"smiles": "O=C(COCC(=O)NC1CCCCCCCCCCC1)Nc1ccc(Cl)cc1C(=O)O", "note": "[Compound 11, 5-chloro-2-(([2-(cyclododecylamino)-2-oxoethoxy]acetyl)amino)benzoic acid]", "values": [{"measurement": "inhibitory action on PAI-1 activity", "setting": "PAI-1 [1]", "value": "excellent inhibitory action on PAI-1 activity"}]}, {"smiles": "O=C(COCC(=O)N(c1ccccc1)C1CCCCC1)Nc1ccc(Cl)cc1C(=O)[O-].[Na+]", "note": "[Compound 15, 5-chloro-2-[((2-[cyclohexyl(phenyl)amino]-2-oxoethoxy)acetyl)amino]benzoic acid.sodium salt]", "values": [{"measurement": "inhibitory action on PAI-1 activity", "setting": "PAI-1 [1]", "value": "excellent inhibitory action on PAI-1 activity"}]}, {"smiles": "O=C(COCC(=O)Nc1ccc(Cl)cc1C(=O)O)Nc1ccc(-c2ccoc2)cc1", "note": "[Compound 64, 5-chloro-2-([(2-([4-(furan-3-yl)phenyl]amino)-2-oxoethoxy)acetyl]amino)benzoic acid]", "values": [{"measurement": "inhibitory action on PAI-1 activity", "setting": "PAI-1 [1]", "value": "excellent inhibitory action on PAI-1 activity"}]}, {"smiles": "CCC(CC(=O)Nc1scc(-c2cccs2)c1C(=O)O)C(=O)Nc1scc(-c2cccs2)c1C(=O)O", "note": "(centres unmarked) [compound b, 2-[3-(3′-carboxy-4′-thienylthiophen-2′-ylcarbamoyl)-pentanoylamino]-4-thienylthiophen-3-carboxylic acid]", "values": [{"measurement": "fibrinolytic action (lysis area on fibrin plate)", "setting": "PAI-1 [2]", "value": "inhibit fibrinolysis suppression caused by PAI-1"}, {"measurement": "PAI-1 activity inhibitory action compared with tiplaxtinin", "setting": "PAI-1 [3]", "value": "higher PAI-1 activity inhibitory action at concentrations of 35 μM and 50 μM than tiplaxtinin"}, {"measurement": "fibrosis score", "setting": "[4]", "value": "2.9±0.42"}]}, {"smiles": "Cc1ccc(-c2ccc(F)cc2)cc1NC(=O)C(=O)Nc1ccc(Cl)cc1C(=O)[O-].[Na+]", "note": "[Compound 20, 5-chloro-2-(([(4′-fluoro-4-methylbiphenyl-3-yl)amino](oxo)acetyl)amino)benzoic acid.sodium salt]", "values": [{"measurement": "inhibitory action on PAI-1 activity", "setting": "PAI-1 [1]", "value": "excellent inhibitory action on PAI-1 activity"}]}, {"smiles": "CCC(CC(=O)Nc1scc(-c2ccccc2)c1C(=O)O)C(=O)Nc1scc(-c2ccccc2)c1C(=O)O", "note": "(centres unmarked) [compound a, 2-[3-(3′-carboxy-4′-phenylthiophen-2′-ylcarbamoyl)-pentanoylamino]-4-phenylthiophen-3-carboxylic acid]", "values": [{"measurement": "fibrinolytic action (lysis area on fibrin plate)", "setting": "PAI-1 [2]", "value": "inhibit fibrinolysis suppression caused by PAI-1"}, {"measurement": "PAI-1 activity inhibitory action compared with tiplaxtinin", "setting": "PAI-1 [3]", "value": "higher PAI-1 activity inhibitory action at concentrations of 35 μM and 50 μM than tiplaxtinin"}]}, {"smiles": "O=C(COCC(=O)Nc1ccc(Cl)cc1C(=O)O)Nc1ccc(-c2ccncc2)cc1", "note": "[Compound 1, 5-chloro-2-([(2-oxo-2-([4-(pyridin-4-yl)phenyl]amino)ethoxy)acetyl]amino)benzoic acid]", "values": [{"measurement": "inhibitory action on PAI-1 activity", "setting": "PAI-1 [1]", "value": "excellent inhibitory action on PAI-1 activity"}]}, {"smiles": "CC(=O)Nc1ccc(-c2ccc(C)c(NC(=O)COCC(=O)Nc3ccc(Cl)cc3C(=O)O)c2)cc1", "note": "[Compound 44, 2-([(2-([4′-(acetylamino)-4-methylbiphenyl-3-yl]amino)-2-oxoethoxy)acetyl]amino)-5-chlorobenzoic acid]", "values": [{"measurement": "inhibitory action on PAI-1 activity", "setting": "PAI-1 [1]", "value": "excellent inhibitory action on PAI-1 activity"}]}, {"smiles": "O=C(COCC(=O)Nc1ccc(Cl)cc1C(=O)O)Nc1cccc(-c2cccs2)c1", "note": "[Compound 63, 5-chloro-2-([(2-oxo-2-([3-(thiophen-2-yl)phenyl]amino)ethoxy)acetyl]amino)benzoic acid]", "values": [{"measurement": "inhibitory action on PAI-1 activity", "setting": "PAI-1 [1]", "value": "excellent inhibitory action on PAI-1 activity"}]}, {"smiles": "O=C(COCC(=O)Nc1ccc(Cl)cc1C(=O)O)Nc1cccc(Cc2ccoc2)c1", "note": "[Compound 55, 5-chloro-2-([(2-([3-(furan-3-ylmethyl)phenyl]amino)-2-oxoethoxy)acetyl]amino)benzoic acid]", "values": [{"measurement": "inhibitory action on PAI-1 activity", "setting": "PAI-1 [1]", "value": "excellent inhibitory action on PAI-1 activity"}]}, {"smiles": "O=C(COCC(=O)Nc1ccc(Cl)cc1C(=O)O)Nc1cccc(-c2ccncc2)c1", "note": "[Compound 2, 5-chloro-2-([(2-oxo-2-([3-(pyridin-4-yl)phenyl]amino)ethoxy)acetyl]amino)benzoic acid]", "values": [{"measurement": "inhibitory action on PAI-1 activity", "setting": "PAI-1 [1]", "value": "excellent inhibitory action on PAI-1 activity"}]}]}
